Measured values: patent US20260226000A1, “Methadone Active Agents and Methods of Use Thereof” (Ensysce Biosciences Inc., priority 2023, published 2026)
Counter-ions that a name gives are not always drawn.

Key:
[1] = molecular target: hERG (human ether-à-go-go-related gene) channel expressed in CHO cells (Homo sapiens, UniProt Q12809); assay: ScreenPatch assay, hERG ion channel block (SyncroPatch 384PE patch clamp); conditions: for Methadone Active Agent/Methadone Ratio (hERG IC50): IC50 relative to racemic methadone HCl
[2] = Maximally tolerated dose study by oral gavage administration

Sequence of hERG (human ether-à-go-go-related gene) channel expressed in CHO cells (Q12809 whole entry): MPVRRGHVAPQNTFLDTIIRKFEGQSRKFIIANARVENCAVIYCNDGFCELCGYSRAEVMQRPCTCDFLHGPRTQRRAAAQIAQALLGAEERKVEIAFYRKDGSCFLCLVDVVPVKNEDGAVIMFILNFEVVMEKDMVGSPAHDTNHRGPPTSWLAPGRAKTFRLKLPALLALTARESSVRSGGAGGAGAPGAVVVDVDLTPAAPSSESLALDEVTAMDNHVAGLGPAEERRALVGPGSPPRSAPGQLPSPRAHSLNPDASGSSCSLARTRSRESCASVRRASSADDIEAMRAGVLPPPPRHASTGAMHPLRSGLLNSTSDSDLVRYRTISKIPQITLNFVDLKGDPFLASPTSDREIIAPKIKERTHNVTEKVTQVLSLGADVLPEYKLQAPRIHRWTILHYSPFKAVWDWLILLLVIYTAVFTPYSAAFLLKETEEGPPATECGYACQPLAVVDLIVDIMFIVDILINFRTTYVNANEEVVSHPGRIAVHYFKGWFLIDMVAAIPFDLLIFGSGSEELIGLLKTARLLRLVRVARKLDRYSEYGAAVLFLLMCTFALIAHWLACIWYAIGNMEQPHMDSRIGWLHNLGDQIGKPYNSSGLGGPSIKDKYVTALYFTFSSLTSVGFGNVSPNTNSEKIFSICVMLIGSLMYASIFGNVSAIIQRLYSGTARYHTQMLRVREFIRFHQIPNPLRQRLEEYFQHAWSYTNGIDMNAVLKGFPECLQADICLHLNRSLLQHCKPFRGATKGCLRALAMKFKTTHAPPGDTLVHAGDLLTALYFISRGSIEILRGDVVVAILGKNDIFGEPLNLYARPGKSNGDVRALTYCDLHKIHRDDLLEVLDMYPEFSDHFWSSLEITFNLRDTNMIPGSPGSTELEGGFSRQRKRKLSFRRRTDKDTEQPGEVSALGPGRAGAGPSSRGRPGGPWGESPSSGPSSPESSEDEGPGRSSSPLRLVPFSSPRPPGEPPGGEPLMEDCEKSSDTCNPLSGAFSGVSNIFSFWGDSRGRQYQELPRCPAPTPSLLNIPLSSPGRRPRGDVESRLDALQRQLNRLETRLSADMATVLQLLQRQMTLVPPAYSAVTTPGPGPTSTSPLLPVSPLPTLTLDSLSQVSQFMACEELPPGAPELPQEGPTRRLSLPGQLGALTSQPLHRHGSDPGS

Row | SMILES | IC50 [1] | Methadone Active Agent/Methadone Ratio (hERG IC50) [1] | clinical observations ([2]; 100 mg/kg and 125 mg/kg) | clinical observations ([2]; 50 and 75 mg/kg) | clinical observations ([2]; doses up to 100 mg/kg)
1 | CCC(=O)C(CC(C)N(C)C)(c1ccccc1)c1ccccc1 (racemic) [Racemic Methadone HCl, Methadone] | 1.89 µM |  |  |  | 
2 | C/C=C(/OC(=O)N(C)CCCCNC(=O)[C@H](CCCNC(=N)N)NC(=O)c1ccccc1)C(C[C@@H](C)N(C)C)(c1ccccc1)c1ccccc1.O=C(O)C(F)(F)F [Levo-Butyl active agent, (R)-6-(dimethylamino)-4,4-diphenylhept-2-en-3-yl (4-((S)-2-benzamido-5-guanidinopentanamido)butyl)(methyl)carbamate 2,2,2-trifluoroacetate] | 51.5 µM | 27.3 | no clinical observations through 72 hr period or limited observations | some observations | 
3 | C/C=C(/OC(=O)N(C)C(C)CNC(=O)[C@H](CCCNC(=N)N)NC(=O)c1ccccc1)C(C[C@@H](C)N(C)C)(c1ccccc1)c1ccccc1.O=C(O)C(F)(F)F (stereo partly drawn) [Levo 1ME active agent, (R)-6-(dimethylamino)-4,4-diphenylhept-2-en-3-yl (1-((S)-2-benzamido-5-guanidinopentanamido)propan-2-yl)(methyl)carbamate 2,2,2-trifluoroacetate] | > 100 µM | >53 |  |  | did not have any clinical observations
4 | C/C=C(/OC(=O)N(C)C[C@@H](C)NC(=O)[C@H](CCCNC(=N)N)NC(=O)c1ccccc1)C(C[C@@H](C)N(C)C)(c1ccccc1)c1ccccc1.O=C(O)C(F)(F)F [Levo 2RME active agent, (R)-6-(dimethylamino)-4,4-diphenylhept-2-en-3-yl ((R)-2-((S)-2-benzamido-5-guanidinopentanamido)propyl)(methyl)carbamate 2,2,2-trifluoroacetate] | 29.4 µM | 15.6 | no clinical observations through 72 hr period or limited observations | some observations | 
